The target in this data set is IRF4. As to conditions: ASO.

Values joined by “and” are separate entries in the source; they are usually repeats but may differ in a detail not shown here. Identical values can stand only once. After the bases stand the sugars from the 5' end (letter, count) and the backbone: PS all phosphorothioate, else s phosphorothioate and o phosphodiester by linkage. Methylation of C is not given here. e = 2'-O-(2-methoxyethyl) (MOE); k = constrained ethyl (cEt); d = 2'-deoxy (DNA)

Our source for the target mRNA inhibition values is the OligoGym collection.

With GTCCAGGTTGCTGGCG (sugars k3 d10 k3, PS), the target mRNA inhibition (SK-MEL-28, 4 µM) was 53%. On the same count and under the same terms, the figure for CATTACGAGAGGGTCT (sugars k3 d10 k3, PS) is 44%. Consider TCTGGCTAGCAGAGGT (sugars k3 d10 k3, PS), for which the target mRNA inhibition (MM.1R, 1 µM) was 26%. In the case of CAAGACATAAACCAAG (sugars k3 d10 k3, PS), for the setting “SK-MEL-28, 4 µM”, the target mRNA inhibition was 51%. Still for that read-out and setting: the figure for GATAAGAAGCACTGGC (sugars k3 d10 k3, PS) is 63%. Still for that read-out and setting: the figure for TGATATTAGAGACTGT (sugars k3 d10 k3, PS) is 60%; for ACTGGATCTGAATTGT (sugars k3 d10 k3, PS) it is 57%.

As to “TTCATGTAAAGTCTGC (sugars k2 d9 e3 k2, PS)”, the target mRNA inhibition (MM.1R, 1 µM) is 27% and 35%.

Turning to “CTTGATAAAGGCTGAA (sugars kkdddddddddekeke, PS)”, the target mRNA inhibition (MM.1R, 1 µM) worked out at 19%.

Regarding “ACTTTTAGAGAGGAGA (sugars kkkddddddddkekek, PS)”, the target mRNA inhibition (MM.1R, 1 µM) was 21%. In the case of “GCATTTTATCATCCGA (sugars k3 d9 k3 e1, PS)”, the target mRNA inhibition worked out at 16% (MM.1R, 0.074 µM); 32% (MM.1R, 0.222 µM); 51% (MM.1R, 0.666 µM); 62% (MM.1R, 1 µM); 77% (MM.1R, 2 µM). Regarding ACACGGGAATTTCCAT (sugars k3 d10 k3, PS), for the setting “SK-MEL-28, 4 µM”, the target mRNA inhibition stood at 56%. Turning to CCACAATCAGCAAGTC (sugars k3 d10 k3, PS), the target mRNA inhibition (MM.1R, 1 µM) worked out at 0%.

Consider CATCCAAGAGTAGCGC (sugars k3 d10 k3, PS), for which the target mRNA inhibition (SK-MEL-28, 4 µM) is 73% and 63%. Regarding CTGTAGTATGAGAAAC (sugars k3 d10 k3, PS), under “SK-MEL-28, 4 µM”, the target mRNA inhibition was determined as 45%. Take TGTCACCTGGCAACCT (sugars k3 d10 k3, PS): where the note is “MM.1R, 1 µM”, the target mRNA inhibition was -4%.

Take GCGGAGCATCAACAAA (sugars k3 d10 k3, PS): where the note is “SK-MEL-28, 4 µM”, the target mRNA inhibition came out at 30%. Turning to ATTTATGCCCTCGCTC (sugars k3 d10 k3, PS), the target mRNA inhibition (SK-MEL-28, 4 µM) stood at 26%.

On to CCCTTCAGCCACGAGG (sugars k3 d10 k3, PS), for which the target mRNA inhibition (SK-MEL-28, 4 µM) amounted to 8%.

As to AGCTGAGCTGATCATC (sugars k3 d10 k3, PS), for the setting “SK-MEL-28, 4 µM”, the target mRNA inhibition was found to be 56%.

Regarding TCCCGACACGCGCCGC (sugars k3 d10 k3, PS), the target mRNA inhibition (MM.1R, 1 µM) is -12%. For GCCAAAGTGACTTAAT (sugars k3 d10 k3, PS), where the note is “SK-MEL-28, 4 µM”, the target mRNA inhibition is 70%. Same read-out and setting: the figure for CATCAATGATGGCAGT (sugars k3 d10 k3, PS) is 50%. “GGAAGTTTACACTGGA (sugars kddddddddddkekek, PS)”: the target mRNA inhibition (MM.1R, 1 µM) came to 33%. Still for that read-out and setting: the figure for “AAGTGTCTAAAGTCCC (sugars kkdddddddddkekek, PS)” is 12% and 22%; for “AGCTTGATAAAGGCTG (sugars kkdddddddddekeke, PS)” it is 18%; for TGCCATGGACAAGTTT (sugars k3 d10 k3, PS) it is -18%. Consider TCGCGCAAAGGGCAAG (sugars k3 d10 k3, PS), for which, under “MM.1R, 1 µM”, the target mRNA inhibition was -4%. Take TAAAACTGCGCTCTCT (sugars k3 d10 k3, PS): the target mRNA inhibition (MM.1R, 1 µM) was -14%.

For the sequence GAACAGATAGTTAAGT (sugars k3 d10 k3, PS), under “SK-MEL-28, 4 µM”, the target mRNA inhibition was 17%. Still for that read-out and setting: the figure for GTCAAACCCTACTGGG (sugars k3 d10 k3, PS) is 31%; for AAGGGTTACGCTTATT (sugars k3 d10 k3, PS) it is 52%.

On to GATATTAGAGACTGTA (sugars k3 d10 k3, PS), for which, under “SK-MEL-28, 4 µM”, the target mRNA inhibition turned out to be 51%.

As to GTAACAACGACACACG (sugars k3 d10 k3, PS), the target mRNA inhibition (SK-MEL-28, 4 µM) was determined as 59%. Take CGGTAGAGTGAGATGC (sugars k3 d10 k3, PS): the target mRNA inhibition (SK-MEL-28, 4 µM) stood at 54%.

Regarding GGACAGCCAAACAAAC (sugars k3 d10 k3, PS), under “SK-MEL-28, 4 µM”, the target mRNA inhibition was determined as 7%. For CAAGCAGTGATGTCAG (sugars k3 d10 k3, PS), the target mRNA inhibition (MM.1R, 1 µM) is 60% and 51%.

Regarding ATAGGAAGTTTACTAA (sugars k3 d10 k3, PS), the target mRNA inhibition (SK-MEL-28, 4 µM) stood at 13%. Same read-out and setting: the figure for AAAGCATAGAGTCACC (sugars k3 d10 k3, PS) is 34%; for TACTAATTCCATAGAG (sugars k3 d10 k3, PS) it is 26%.

As for “CACATCAATGTTTTAG (sugars k2 d9 e3 k2, PS)”, the target mRNA inhibition (MM.1R, 1 µM) was 12% and 11%. With “AATGTGTATTACTCTT (sugars kkdddddddddekeke, PS)”, for the setting “MM.1R, 1 µM”, the target mRNA inhibition is 24% and 30%. The same measure, in the same setting: the figure for AAGCGAGTCAGACAGT (sugars k3 d10 k3, PS) is -22%. Take AGTAGCTGGGCCCTCG (sugars k3 d10 k3, PS): under “SK-MEL-28, 4 µM”, the target mRNA inhibition amounted to 62%. With “GAAGCATTTTATCATC (sugars kkdddddddddkekek, PS)”, where the note is “MM.1R, 1 µM”, the target mRNA inhibition was -20%. For TCCTCAAAGTCATTGC (sugars k3 d10 k3, PS), under “SK-MEL-28, 4 µM”, the target mRNA inhibition was determined as 32%.

Take “GTGTCTAAAGTCCCAT (sugars kdddddddddkekeke, PS)”: under “MM.1R, 1 µM”, the target mRNA inhibition amounted to 5%. With ATAGTAAATATCCTGT (sugars k3 d10 k3, PS), under “SK-MEL-28, 4 µM”, the target mRNA inhibition is 36%. On the same count and under the same terms, the figure for AGATGTATACATCACT (sugars k3 d10 k3, PS) is 76% and 71%; for CCGTAGTCAGCTCCAT (sugars k3 d10 k3, PS) it is 73%. Take GGCCTTAATGGTGATT (sugars k3 d10 k3, PS): the target mRNA inhibition (MM.1R, 1 µM) was -16%. Turning to TTGAAGCAACACGGGA (sugars k3 d10 k3, PS), the target mRNA inhibition (SK-MEL-28, 4 µM) stood at 61%. Still for that read-out and setting: the figure for CTGAACTGAAATCTCC (sugars k3 d10 k3, PS) is 64% and 63%.

As to “TCTATAGTGTTCCAGG (sugars kkkddddddddkekek, PS)”, the target mRNA inhibition (MM.1R, 1 µM) amounted to 13%. GCTTCCCGTTGCCGCA (sugars k3 d10 k3, PS): the target mRNA inhibition (SK-MEL-28, 4 µM) turned out to be 18%. In the case of ACCAGAATTGCAAGAG (sugars k3 d10 k3, PS), the target mRNA inhibition (SK-MEL-28, 4 µM) turned out to be 60%. Same read-out and setting: the figure for AGCTTAGTTATCTGGG (sugars k3 d10 k3, PS) is 54% and 59%. Same read-out and setting: the figure for CACTGGCATCGAGACG (sugars k3 d10 k3, PS) is 61%.

As for “GTTGGCTGGTCTTTGT (sugars kddddddddddkekek, PS)”, the target mRNA inhibition (MM.1R, 1 µM) was 23%. For AAGTGATAGGTATACT (sugars k3 d10 k3, PS), where the note is “SK-MEL-28, 4 µM”, the target mRNA inhibition was determined as 50%. For “AAGTTCATGTAAAGTC (sugars k2 d9 e3 k2, PS)”, the target mRNA inhibition (MM.1R, 1 µM) was 21% and 3%. TGATAGGTATACTTAA (sugars k3 d10 k3, PS): where the note is “SK-MEL-28, 4 µM”, the target mRNA inhibition turned out to be 28%. The same measure, in the same setting: the figure for TCTTACAGCAATCTTA (sugars k3 d10 k3, PS) is 32%; for TCTTGTGGACACTTTT (sugars k3 d10 k3, PS) it is 65%; for GACAAATCTTCTGCCT (sugars k3 d10 k3, PS) it is 26%. Still for that read-out and setting: the figure for GACAGCTTCTTTGAAG (sugars k3 d10 k3, PS) is 36%; for TGGCGGATAGATCTGT (sugars k3 d10 k3, PS) it is 34%. Consider CTGAAACGGTCAGCAG (sugars k3 d10 k3, PS), for which, where the note is “MM.1R, 1 µM”, the target mRNA inhibition amounted to 3%. The same measure, in the same setting: the figure for “CTCTATAGTGTTCCAG (sugars kkdddddddddkekek, PS)” is 22%. The same measure, in the same setting: the figure for “AAGCATTTTATCATCC (sugars kkkdddddddddkeke, PS)” is 21%. For TCTAGTTTGCCAATTC (sugars k3 d10 k3, PS), the target mRNA inhibition (SK-MEL-28, 4 µM) was found to be 62%.

Consider AGGCACGGCTTCAGTC (sugars k3 d10 k3, PS), for which the target mRNA inhibition (SK-MEL-28, 4 µM) was 49%. Still for that read-out and setting: the figure for TGAAATGGAGCATCCG (sugars k3 d10 k3, PS) is 9%; for GGCAACCATTTTCACA (sugars k3 d10 k3, PS) it is -17%. “CACATCAATGTTTTAG (sugars kkdddddddddkekek, PS)”: under “MM.1R, 1 µM”, the target mRNA inhibition is 19% and 34%. On to CTGGAACATTGTTGGA (sugars k3 d10 k3, PS), for which the target mRNA inhibition (SK-MEL-28, 4 µM) came to 46%. For AACCACAAGCAGTGAT (sugars k3 d10 k3, PS), under “SK-MEL-28, 4 µM”, the target mRNA inhibition is 17%. In the case of “CAGTGATGTCAGGTTT (sugars e1 k2 d9 k2 e2, PS)”, the target mRNA inhibition (MM.1R, 1 µM) amounted to 20%. Same read-out and setting: the figure for “TGTGTATTACTCTTAG (sugars kddddddddddkekek, PS)” is 58% and 56%. With TAGATCTGTGGTAATC (sugars k3 d10 k3, PS), the target mRNA inhibition (MM.1R, 1 µM) was 20% and 6%. As for GAACAATCCTGTACAC (sugars k4 d8 k4, PS), under “SK-MEL-28, 4 µM”, the target mRNA inhibition is 0%.

Regarding AACCAAGAAATGCACC (sugars k3 d10 k3, PS), the target mRNA inhibition (SK-MEL-28, 4 µM) is 33%. Same read-out and setting: the figure for CAGAAGTACGAGCACA (sugars k3 d10 k3, PS) is 47%.

Regarding “TGATAGCTGAGCTGAT (sugars kkdddddddddekeke, PS)”, under “MM.1R, 1 µM”, the target mRNA inhibition came to 15%.

With AAAAAGGTGCAAGCCT (sugars k3 d10 k3, PS), the target mRNA inhibition (MM.1R, 1 µM) amounted to 6%. Turning to CTGGAGTGAACCCTTC (sugars k3 d10 k3, PS), the target mRNA inhibition (SK-MEL-28, 4 µM) is 56%.

In the case of CCAGTACAGTCCACTC (sugars k3 d10 k3, PS), the target mRNA inhibition (MM.1R, 1 µM) is -6%.

In the case of AGGGAGCTCATTTTGA (sugars k3 d10 k3, PS), under “MM.1R, 1 µM”, the target mRNA inhibition was -8%.

On to CAGTTTGTGAAGCATC (sugars k3 d10 k3, PS), for which the target mRNA inhibition (SK-MEL-28, 4 µM) came to 78%. GGGTGGTAGAATGTGA (sugars k3 d10 k3, PS): where the note is “MM.1R, 1 µM”, the target mRNA inhibition worked out at 33%. On the same count and under the same terms, the figure for “TGTAGTATGAGAAACG (sugars kdddddddddkekeke, PS)” is 14%. On to GGCAGACCTTATGCTT (sugars k3 d10 k3, PS), for which the target mRNA inhibition (SK-MEL-28, 4 µM) is 21%. On the same count and under the same terms, the figure for AAAAATGTCCCATCCA (sugars k3 d10 k3, PS) is 30%.

Turning to “ACTGCTTGAGGTTTTC (sugars kkdddddddddkekek, PS)”, the target mRNA inhibition (MM.1R, 1 µM) stood at 24%.
